# Columns and labels:
# [1] = system: GFP-labeled E. coli 541-15; experiment: Antibiotic susceptibility test (AST) in the EL-MVM^2 microfluidic platform, resazurin fluorescence / GFP readout; format: cell-based; details: GFP-labeled E. coli 541-15, 4.5 hours of incubation; intermediate sub-GCP = 1.12-12.54 μg/mL
# E. coli 541-15 = experiment: Gold standard broth microdilution (BMD) test, OD600; format: cell-based; details: E. coli 541-15, 1×10^6 CFU/mL
substance,measurement,setting,value
Gentamicin,Turning point of GFP-labeled bacterial growth from partially to totally inhibited,[1],intermediate concentration range
same,"MIC (broth microdilution, OD600 nm, 80% reduction)",E. coli 541-15,5.00 µg/mL
